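Dose response: 5 concentrations. Exposure: 48 h. Format: 96-well plates. Endpoint: linear interpolation; highest concentration if not reached. GI50 is the concentration that inhibits growth by half. The concentration for full growth arrest is given as TGI.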
Key:
Assay in all cases: inhibition of tumour cell growth, NCI panel, 48 h; in the data active = GI50 below about 0.43 µM; inactive = the rest
MALME-3M melanoma = system: MALME-3M melanoma
HOP-62 NSCLC = system: HOP-62 NSCLC
SF-268 CNS = system: SF-268 CNS
M14 melanoma = system: M14 melanoma
HT29 colon = system: HT29 colon
LOX IMVI melanoma = system: LOX IMVI melanoma
DU-145 prostate = system: DU-145 prostate
ACHN renal = system: ACHN renal
HCT-116 colon = system: HCT-116 colon
BT-549 breast = system: BT-549 breast

Oc1c([Si](c2ccccc2)(c2ccccc2)c2ccccc2)cc2ccccc2c1-c1c(O)c([Si](c2ccccc2)(c2ccccc2)c2ccccc2)cc2ccccc12
> 100 µM: TGI (MALME-3M melanoma) | TGI (HOP-62 NSCLC) | TGI (SF-268 CNS) | TGI (M14 melanoma) | TGI (HT29 colon) | TGI (LOX IMVI melanoma) | TGI (DU-145 prostate) | TGI (ACHN renal)

COC(=O)C(CSSC[C@H](N/C(C)=C/C(C)=O)C(=O)OC)N/C(C)=C/C(C)=O (stereo partly drawn)
68.6 µM: TGI (MALME-3M melanoma)
> 100 µM: TGI (HCT-116 colon) | TGI (HOP-62 NSCLC) | TGI (SF-268 CNS) | TGI (M14 melanoma) | TGI (HT29 colon)
39.7 µM: TGI (LOX IMVI melanoma)
87.5 µM: TGI (DU-145 prostate)
17.1 µM: TGI (ACHN renal)

COc1ccc(-n2c(=O)n(C)c(=O)n2-c2ccc(OC)cc2)cc1
> 100 µM: TGI (HCT-116 colon) | TGI (HOP-62 NSCLC) | TGI (SF-268 CNS) | TGI (M14 melanoma) | TGI (BT-549 breast) | TGI (HT29 colon) | TGI (LOX IMVI melanoma) | TGI (DU-145 prostate) | TGI (ACHN renal)

COc1cc(/C=C2\Sc3scc(-c4cccc([N+](=O)[O-])c4)[n+]3C2=O)cc(OC)c1OC
24.1 µM: TGI (LOX IMVI melanoma)
41.2 µM: TGI (HT29 colon)
26.4 µM: TGI (HCT-116 colon)
28.4 µM: TGI (MALME-3M melanoma)
42.1 µM: TGI (SF-268 CNS)
30.2 µM: TGI (DU-145 prostate)
28.1 µM: TGI (ACHN renal)
23.9 µM: TGI (M14 melanoma)
36.1 µM: TGI (HOP-62 NSCLC)

CCOC(=O)c1cnc2oc3ccc(O)cc3c2c1-c1ccccc1
> 100 µM: TGI (MALME-3M melanoma) | TGI (HCT-116 colon) | TGI (SF-268 CNS) | TGI (M14 melanoma) | TGI (HT29 colon) | TGI (LOX IMVI melanoma) | TGI (DU-145 prostate) | TGI (ACHN renal)
inactive: GI50 (SF-268 CNS) 29.7 µM

COC(=O)c1c(OC(C)=O)ccc2c1c1c(n2C)C(=O)c2ccccc2C1=O
> 100 µM: TGI (HCT-116 colon) | TGI (SF-268 CNS) | TGI (M14 melanoma) | TGI (HT29 colon)
57 µM: TGI (BT-549 breast)
67.4 µM: TGI (HOP-62 NSCLC)
55.3 µM: TGI (MALME-3M melanoma)
62.5 µM: TGI (DU-145 prostate)
51.5 µM: TGI (ACHN renal)

CCOC(=O)C(NC(=O)CC)(Nc1cc(C)on1)C(F)(F)F (stereo not drawn)
> 100 µM: TGI (HCT-116 colon) | TGI (SF-268 CNS) | TGI (M14 melanoma) | TGI (BT-549 breast) | TGI (HT29 colon) | TGI (LOX IMVI melanoma) | TGI (ACHN renal)

CC1(C)CC(C)(C)C1=NNC(N)=O
> 100 µM: TGI (MALME-3M melanoma) | TGI (HCT-116 colon) | TGI (HOP-62 NSCLC) | TGI (SF-268 CNS) | TGI (M14 melanoma) | TGI (HT29 colon) | TGI (LOX IMVI melanoma) | TGI (DU-145 prostate) | TGI (ACHN renal)

CC1(c2ccc[n+](Cc3ccccc3)c2)OCCO1
> 100 µM: TGI (MALME-3M melanoma) | TGI (HCT-116 colon) | TGI (HOP-62 NSCLC) | TGI (M14 melanoma) | TGI (HT29 colon) | TGI (LOX IMVI melanoma) | TGI (ACHN renal)

C[C@@H]1CC[C@H]2C(C(O)CCCCC(O)C3=C(C(F)(F)F)O[C@@H]4O[C@@]5(C)CC[C@H]6[C@H](C)CC[C@@H]3[C@@]46OO5)=C(C(F)(F)F)O[C@@H]3O[C@@]4(C)CC[C@@H]1[C@]32OO4 (stereo partly drawn)
inactive: GI50 (MALME-3M melanoma) 44.7 µM | GI50 (HCT-116 colon) 7.17 µM | GI50 (HOP-62 NSCLC) 36.9 µM | GI50 (SF-268 CNS) 19.5 µM | GI50 (BT-549 breast) 80.5 µM | GI50 (HT29 colon) 13.6 µM | GI50 (LOX IMVI melanoma) 3.12 µM | GI50 (DU-145 prostate) 99.9 µM | GI50 (ACHN renal) 13.9 µM
11.8 µM: TGI (LOX IMVI melanoma)
> 100 µM: TGI (MALME-3M melanoma) | TGI (HCT-116 colon) | TGI (HOP-62 NSCLC) | TGI (SF-268 CNS) | TGI (BT-549 breast) | TGI (HT29 colon) | TGI (DU-145 prostate) | TGI (ACHN renal)

CCOC(=O)c1cc2c(C(=O)c3ccc([N+](=O)[O-])cc3)c(C(C)=O)ccc2[nH]1
> 100 µM: TGI (HCT-116 colon) | TGI (M14 melanoma) | TGI (BT-549 breast) | TGI (HT29 colon) | TGI (LOX IMVI melanoma) | TGI (DU-145 prostate) | TGI (ACHN renal)
18.4 µM: TGI (HOP-62 NSCLC)
38.9 µM: TGI (SF-268 CNS)

COc1ccc(-c2c(C#N)c(S)n(NS(=O)(=O)c3ccc(C)cc3)c(=O)c2C#N)cc1
41.3 µM: TGI (ACHN renal)
88 µM: TGI (SF-268 CNS)
29.8 µM: TGI (LOX IMVI melanoma)
52.9 µM: TGI (M14 melanoma)
> 100 µM: TGI (MALME-3M melanoma) | TGI (HOP-62 NSCLC) | TGI (HT29 colon)
28 µM: TGI (HCT-116 colon)
32.5 µM: TGI (BT-549 breast)

COc1ccc2c(c1)c(CC(=O)O)c(C)n2C(=O)c1ccc(Cl)cc1
> 100 µM: TGI (MALME-3M melanoma) | TGI (HCT-116 colon) | TGI (HOP-62 NSCLC) | TGI (SF-268 CNS) | TGI (M14 melanoma) | TGI (HT29 colon) | TGI (LOX IMVI melanoma) | TGI (DU-145 prostate) | TGI (ACHN renal)

CCN(C(=S)N[C@H](C(=O)N[C@@H](C)C(=O)OC)C(C)C)c1ccccc1
> 100 µM: TGI (HCT-116 colon) | TGI (HOP-62 NSCLC) | TGI (M14 melanoma) | TGI (BT-549 breast) | TGI (HT29 colon) | TGI (LOX IMVI melanoma) | TGI (DU-145 prostate) | TGI (ACHN renal)
98.2 µM: TGI (MALME-3M melanoma)

Cc1nc2c(sc(=S)n2-c2ccccc2)c(=O)[nH]1
> 100 µM: TGI (MALME-3M melanoma) | TGI (HCT-116 colon) | TGI (HOP-62 NSCLC) | TGI (SF-268 CNS) | TGI (HT29 colon) | TGI (ACHN renal)

COc1ccc(C(=O)Cc2ccc(Br)cc2)cc1OC
> 100 µM: TGI (MALME-3M melanoma) | TGI (HCT-116 colon) | TGI (HOP-62 NSCLC) | TGI (SF-268 CNS) | TGI (M14 melanoma) | TGI (HT29 colon) | TGI (LOX IMVI melanoma) | TGI (ACHN renal)

C/C=C(/C)C(=O)O[C@H](C[C@@H](C)[C@H]1CC(c2ccoc2)OC1=O)[C@@]1(C)C(=O)CCC2O[C@]21C (stereo partly drawn)
> 100 µM: TGI (MALME-3M melanoma) | TGI (HCT-116 colon) | TGI (M14 melanoma) | TGI (BT-549 breast) | TGI (HT29 colon) | TGI (LOX IMVI melanoma) | TGI (DU-145 prostate) | TGI (ACHN renal)

COC(=O)[C@H]1CO[C@H]2C/C(C)=C/CC/C(C)=C/CC[C@@]3(C)O[C@@H]3C[C@H]21
> 50 µM: TGI (HOP-62 NSCLC) | TGI (SF-268 CNS) | TGI (M14 melanoma) | TGI (HT29 colon) | TGI (DU-145 prostate) | TGI (ACHN renal)
24.9 µM: TGI (HCT-116 colon)
33.8 µM: TGI (BT-549 breast)

CCN(CC)c1ccc2cc(C(=O)Nc3cccc4ccccc34)c(=N)oc2c1
62.1 µM: TGI (BT-549 breast)
> 100 µM: TGI (MALME-3M melanoma) | TGI (HCT-116 colon) | TGI (SF-268 CNS) | TGI (M14 melanoma) | TGI (HT29 colon) | TGI (LOX IMVI melanoma) | TGI (DU-145 prostate) | TGI (ACHN renal)

NCCCN(CCCN)CCN(CCN(CCCN)CCCN)CCN(CCCN)CCCN
> 100 µM: TGI (HCT-116 colon) | TGI (HOP-62 NSCLC) | TGI (M14 melanoma) | TGI (HT29 colon) | TGI (LOX IMVI melanoma) | TGI (DU-145 prostate) | TGI (ACHN renal)

Nc1ccccc1CC(O)C(=O)O (stereo not drawn)
> 100 µM: TGI (MALME-3M melanoma) | TGI (HCT-116 colon) | TGI (HOP-62 NSCLC) | TGI (SF-268 CNS) | TGI (M14 melanoma) | TGI (HT29 colon) | TGI (LOX IMVI melanoma) | TGI (DU-145 prostate) | TGI (ACHN renal)

COc1ccc(C2N(NC(=O)c3ccncc3)C(=O)CS2(=O)=O)cc1F (stereo not drawn)
> 100 µM: TGI (MALME-3M melanoma) | TGI (HCT-116 colon) | TGI (HOP-62 NSCLC) | TGI (SF-268 CNS) | TGI (M14 melanoma) | TGI (HT29 colon) | TGI (LOX IMVI melanoma) | TGI (ACHN renal)

— PubChem BioAssay (NCI)
